The target in the experiment is T1, Rev-Erb alpha (Homo sapiens, UniProt P20393).
T1 sequence (P20393 284-614 limits assumed): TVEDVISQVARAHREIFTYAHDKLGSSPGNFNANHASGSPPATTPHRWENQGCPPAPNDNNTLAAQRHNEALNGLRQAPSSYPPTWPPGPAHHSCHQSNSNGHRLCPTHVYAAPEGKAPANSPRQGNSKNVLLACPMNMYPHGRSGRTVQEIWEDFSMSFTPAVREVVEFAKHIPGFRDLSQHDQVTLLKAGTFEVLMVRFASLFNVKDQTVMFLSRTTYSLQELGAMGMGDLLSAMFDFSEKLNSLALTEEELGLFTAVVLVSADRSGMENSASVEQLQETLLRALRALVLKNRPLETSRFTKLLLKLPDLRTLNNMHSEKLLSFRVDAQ
Briefly: M2H (mammalian two-hybrid) cellular activation assay of Rev-Erb alpha. Format: cell-based. The settings on record: M2H assay, HEK293 cells; for EC50: Gal4-Rev-Erb alpha / VP16-NCoR, luciferase reporter; for Emax: relative to DMSO, at the tested dose, read-out: TOP activation. The protocol: In this system, Rev-Erb alpha or Rev-Erb beta is expressed as a fusion to the Gal4 DNA-binding domain and the cofactor NCoR is expressed as a fusion to the activation domain of the Herpes Simplex Virus tegument protein VP16. These fusion proteins were included in plasmids at a concentration of 1 μg/μL. The pBS-SK+ vector was added to the preparation to adjust the DNA quantity to a fixed value for each condition.
The transfection mix (Jet-PEI protocol, Polyplus transfection) comprised: • 3 mL of Jet PEI Mix (180 μL Jet-Pei and NaCl at 150 mM) and • 3 mL of the DNA Mix or of the DNA Mix control (wherein the Gal4-Rev-Erb alpha plasmid was replaced by a pGal4phi plasmid).
DNA Mix comprised 1.2 mL of DNA and 1.8 mL of NaCl at 150 mM with, in a T225 flask: • 90 ng of Gal4-Rev-Erb alpha, or 90 ng of Gal4-Rev-Erb beta, • 4500 ng of VP16-NCoR, • 27000 ng of Gal4-RE and • 13410 ng of pBS-SK+. Cells
HEK293 cells were cultured in DMEM (Invitrogen 41965) comprising 10% FBS, P/S, 1% glutamine, 1% pyruvate (Invitrogen 11360) and 1% amino acids (Invitrogen 11140). Cells were then batch co-transfected with plasmid vectors (described in the table above) using as Jet-PEI as reagent (Polyplus) following the protocol specified below.
The 6 mL-transfection mix was transferred in a T225 flask. HEK293 cells were then added at a concentration of 12 Millions of cells for 54 mL of medium (DMEM comprising 10% FBS and 1% P/S). Cells incubated over-night at 37° C. and under 5% CO2.
This cell-based assay is performed using 384-well Greiner white plates (Reference 781080). After the incubation, cells were rinsed with PBS, trypsinized, centrifuged and resuspended in free-serum DMEM without phenol red (Invitrogen 31053). Cells were counted and adjusted to 0.5 Million per mL and plated at a concentration of 10,000 cells in 20 μL per well. They were incubated a minimum of 4 hours at 37° C. under 5% CO2. Cells were treated with 20 μL of the compound to analyze (concentration of 2× diluted in DMEM without FBS containing a maximum of 1% DMSO) and incubated over-night (18 hours, 37° C. and 5% CO2). Each compound has been tested at 6 different concentrations to depict a dose-effect allowing the measure of biochemical parameters such as EC50 and TOP activation (%).
Cells were incubated 30 minutes with 40 μL/well of Steady Glow (Promega) and luminescence was read with TECAN Genios Pro (100 ms/w). Four experiments were carried out for each compound.
Each compound has been tested at 6 different concentrations to depict a dose-effect allowing the measure of biochemical parameters such as EC50 and TOP activation (%).
The mammalian two-hybrid system (M2H) assay consists herein in studying the ability of compounds according to the invention to activate Rev-Erbalpha in cells and thus modulate the interaction with its corepressor. The interaction of the two proteins is assessed with the help of the Luciferase reporter gene. HEK293 cells were transfected with two gene constructions: Gal4-RE VP16-NCoR and Gal4-Rev-Erbalpha or with Gal4-RE, sVP16-NCoR and Gal4-Rev-Erb beta.
The ability of compounds according to the invention of activating Rev-Erbalpha alpha or Rev-Erb beta was assessed in the described cell-based assay. EC50 and TOP activation (%) were measured.
A general note: A reporter such as luciferase makes a cellular process visible.

Where a name gives a salt, the structure may show the parent alone.

The EC50 is the concentration that produces a half-maximal response. Higher therefore signals a need for much substance.

`Cc1nc(-c2ccc(Oc3ccc4nnc(Cl)n4n3)c(-c3ccccc3)c2)no1` [Cpd.4-198, 3-chloro-6-(4-(5-methyl-1,2,4-oxadiazol-3-yl)-2-(phenyl)phenoxy)-[1,2,4]triazolo[4,3-b]pyridazine] gave an EC50 of 100 to 1000 nM.
The same measure, in the same setting: under `CNc1ccc(-c2ccccc2)c(Oc2ccc3nnc(Cl)n3n2)c1` [Cpd.4-52, 3-chloro-6-(4-N-methylamino-biphenyl-2-yloxy)-[1,2,4]triazolo[4,3-b]pyridazine] stands 100 to 1000 nM.
For `Cn1cc(-c2ccc(C(F)(F)F)cc2Oc2ccc3nnc(Cl)n3n2)ccc1=O` [Cpd.4-86, 5-(2-(3-chloro-[1,2,4]triazolo[4,3-b]pyridazin-6-yloxy)-4-(trifluoromethyl)phenyl)-1-methylpyridin-2(1H)-one], the EC50 is above 6000 nM and the Emax is above 130%.
`Fc1ccc(-c2ccccc2Oc2ccc3nnc(Cl)n3n2)c(F)c1` [Cpd.4-13, 6-(2′,4′-difluoro-biphenyl-2-yloxy)-3-chloro-[1,2,4]triazolo[4,3-b]pyridazine] registered an EC50 of 100 to 1000 nM.
As for `COc1ncc(-c2ccc(C(F)(F)F)cc2Oc2cc(C)c3nnc(Cl)n3n2)cn1` [Cpd.5-34, 3-chloro-8-methyl-6-((2-(2-methoxypyrimidin-5-yl))-5-(trifluoromethyl)phenoxy)-[1,2,4]triazolo[4,3-b]pyridazine], the EC50 is 100 to 1000 nM.
For `Clc1nnc2ccc(Oc3ccccc3-c3cccnc3)nn12` [Cpd.4-98, 3-chloro-6-(2-(pyridin-3-yl)phenoxy)-[1,2,4]triazolo[4,3-b]pyridazine hydrochloride], the concentration giving a half-maximal response (EC50) is above 6000 nM and the Emax was above 130%.
Compound `FC(F)(F)c1ccc(-c2cccc(CNC3CC3)c2)c(Oc2ccc3nnc(Cl)n3n2)c1` [Cpd.4-168, 3-chloro-6-(4-(trifluoromethyl)-3′-(cyclopropylaminomethyl)biphenyl-2-yloxy)-[1,2,4]triazolo[4,3-b]pyridazine, hydrochloride] had an EC50 of 1000 to 6000 nM.
On the same count and under the same terms, under `Clc1nnc2ccc(Oc3cc(CNCC4CCCCC4)ccc3-c3ccccc3)nn12` [Cpd.4-176, 3-chloro-6-(4-(cyclohexylmethyl)aminomethylbiphenyl-2-yloxy)-[1,2,4]triazolo[4,3-b]pyridazine] stands 1000 to 6000 nM; under `COc1ncccc1-c1ccc(C(F)(F)F)cc1Oc1ccc2nnc(Cl)n2n1` [Cpd.4-80, 3-chloro-6-(2-(2-methoxypyridin-3-yl)-5-(trifluoromethyl)phenoxy)-[1,2,4]triazolo[4,3-b]pyridazine hydrochloride], 100 to 1000 nM; under `COc1ncc(-c2ccc(C(F)(F)F)cc2Oc2nn3c(Cl)nnc3c3ccccc23)cn1` [Cpd.5-36, 3-chloro-6-((2-(2-methoxypyrimidin-5-yl))-5-(trifluoromethyl)phenoxy)-[1,2,4]triazolo[3,4-a]phthalazine], 100 to 1000 nM.
The same measure, in the same setting: under `COc1cccc(-c2cc(F)ccc2Oc2ccc3nnc(Cl)n3n2)c1` [Cpd.4-76, 3-chloro-6-(5-fluoro-3′ methoxy-biphenyl-2-yloxy)-[1,2,4]triazolo[4,3-b]pyridazine] stands 100 to 1000 nM.
Take `CN(C)Cc1ccc(Oc2ccc3nnc(Cl)n3n2)c(-c2ccccc2)c1` [Cpd.4-63, 3-chloro-6-(5-N,N-dimethylaminomethyl-biphenyl-2-yloxy)-[1,2,4]triazolo[4,3-b]pyridazine]: the EC50 is above 6000 nM and the Emax was above 130%.
For `Cc1nc(-c2ccc(-c3cccnc3)c(Oc3ccc4nnc(Cl)n4n3)c2)no1` [Cpd.4-199, 3-chloro-6-(5-(5-methyl-1,2,4-oxadiazol-3-yl)-2-(pyridin-3-yl)phenoxy)-[1,2,4]triazolo[4,3-b]pyridazine], in that order: above 6000 nM and above 130%.
With `CCc1c(Oc2cc(C(F)(F)F)ccc2-c2ccccc2)nn2c(Cl)nnc2c1CC` [Cpd.5-12, 3-chloro-7,8-diethyl-6-(4-trifluoromethyl-biphenyl-2-yloxy)-[1,2,4]triazolo[4,3-b]pyridazine], the EC50 fell in the range of 100 to 1000 nM.
The same measure, in the same setting: under `COc1cccc(-c2ccc(C(F)(F)F)cc2Oc2ccc3nnc(Cl)n3n2)c1` [Cpd.4-71, 3-chloro-6-(3′-methoxy-4-trifluoromethyl-biphenyl-2-yloxy)-[1,2,4]triazolo[4,3-b]pyridazine] stands 100 to 1000 nM; under `NC(=O)c1cccc(-c2ccc(C(F)(F)F)cc2Oc2ccc3nnc(Cl)n3n2)c1` [Cpd.4-72, 3-chloro-6-(4-trifluoromethyl-3′-aminocarbonyl-biphenyl-2-yloxy)-[1,2,4]triazolo[4,3-b]pyridazine], 1000 to 6000 nM; under `Fc1ccc(-c2ccc(C(F)(F)F)cc2Oc2ccc3nnc(Cl)n3n2)cn1` [Cpd.4-87, 3-chloro-6-(2-(6-fluoropyridin-3-yl)-5-(trifluoromethyl)phenoxy)-[1,2,4]triazolo[4,3-b]pyridazine], 1000 to 6000 nM.
With `NCc1ccc(-c2ccccc2)c(Oc2ccc3nnc(Cl)n3n2)c1` [Cpd.4-65, 3-chloro-6-(4-aminomethyl-biphenyl-2-yloxy)-[1,2,4]triazolo[4,3-b]pyridazine], the EC50 is above 6000 nM and the Emax was above 130%.
`CCc1ncncc1-c1ccc(C(F)(F)F)cc1Oc1cc(C)c2nnc(Cl)n2n1` [Cpd.5-53, 3-chloro-6-(2-(4-ethylpyrimidin-5-yl)-5-(trifluoromethyl)phenoxy)-8-methyl-[1,2,4]triazolo[4,3-b]pyridazine] returned an EC50 of 1000 to 6000 nM.
Take `CC(C)(C)OC(=O)NCc1ccc(-c2ccccc2)c(Oc2ccc3nnc(Cl)n3n2)c1` [Cpd.4-186, 3-chloro-6-(4-tertbutyloxycarbonylaminomethylbiphenyl-2-yloxy)-[1,2,4]triazolo[4,3-b]pyridazine]: the EC50 fell in the range of 1000 to 6000 nM.
On the same count and under the same terms, under `Cc1ncccc1-c1ccc(C(F)(F)F)cc1Oc1nn2c(Cl)nnc2c2ccccc12` [Cpd.5-21, 3-chloro-6-(2-(2-methylpyridin-3-yl)-5-(trifluoromethyl)phenoxy)-[1,2,4]triazolo[3,4-a]phthalazine] stands 100 to 1000 nM; under `Clc1nnc2ccc(Oc3ccc(CNC4CCCC4)cc3-c3ccccc3)nn12` [Cpd.4-160, 3-chloro-6-(5-(cyclopentylaminomethyl)biphenyl-2-yloxy)-[1,2,4]triazolo[4,3-b]pyridazine], 1000 to 6000 nM; under `COc1ncc(-c2ccc(C(F)(F)F)cc2Oc2nn3c(Cl)nnc3cc2C)cn1` [Cpd.5-35, 3-chloro-7-methyl-6-((2-(2-methoxypyrimidin-5-yl))-5-(trifluoromethyl)phenoxy)-[1,2,4]triazolo[4,3-b]pyridazine], 1000 to 6000 nM.
The compound `Fc1ccc2c(Oc3cc(C(F)(F)F)ccc3-c3ccccc3)nn3c(Cl)nnc3c2c1` [Cpd.5-2, 3-chloro-6-(4-trifluoromethyl-biphenyl-2-yloxy)-9-fluoro-[1,2,4]triazolo[3,4-a]phthalazine] showed an EC50 of 100 to 1000 nM.
In the case of `CCCn1cc(-c2ccc(C(F)(F)F)cc2Oc2ccc3nnc(Cl)n3n2)ccc1=O` [Cpd.4-88, 5-(2-(3-chloro-[1,2,4]triazolo[4,3-b]pyridazin-6-yloxy)-4-(trifluoromethyl)phenyl)-1-propylpyridin-2(1H)-one], the EC50 is above 6000 nM and the Emax was above 130%.

These data come from patent US9586963B2 (GENFIT, priority 2011, dated 2017).
